PMC5971037, “Synthesis and evaluation of antimicrobial, antitubercular and anticancer activities of 2-(1-benzoyl-1H-benzo[d]imidazol-2-ylthio)-N-substituted acetamides” (Chemistry Central Journal, 2018)
Converted amounts (≈) assume the structure as drawn. Like-named read-outs stand apart in the source and are kept apart here.

How the values were obtained:
[1] = system: HCT116 (human colorectal) cell line; assay: Sulforhodamine-B (SRB) cytotoxicity assay; format: cell-based
[2] = system: M. tuberculosis H37Rv (NCFT/TB/537); assay: Well diffusion susceptibility test (zone of inhibition); format: cell-based; conditions: Mycobacterium tuberculosis, 672 h, read-out: Diameter of zone of inhibition against H37Rv (NCFT/TB/537), wells of 8 mm, 50 µg/ml test compound, 25 µg/ml standard drug, 4 weeks, NA = no activity
M. tuberculosis H37Rv [3] = assay: Minimum lethal concentration (MLC); format: cell-based; conditions: Mycobacterium tuberculosis, NA = no activity, read-out: MLC against M. tuberculosis H37Rv
E. coli [4] = assay: Tube dilution MIC; conditions: Escherichia coli, 24 h, read-out: MIC E. coli
[5] = target: mycobacterial isocitrate lyase (Mycobacterium tuberculosis, UniProt P9WKK7); assay: Mycobacterial isocitrate lyase (ICL) assay; format: biochemical, M. tuberculosis H37Rv; conditions: read-out: Percent inhibition of enzyme, M. ICL activity
Procedure: The compounds found potent in in vivo evaluation were assayed for inhibition of mycobacterial enzymes viz., isocitrate lyase, pantothenate synthetase and chorismate mutase.
Isocitrate lyase activity was assayed according to the protocol reported by Dixon and Kornberg (glyoxylate phenyl hydrazone formation) at 10 μM of the compounds.

M. tuberculosis H37Rv [6] = assay: MIC by microplate alamar blue assay; format: cell-based; conditions: Mycobacterium tuberculosis, NA = no activity, read-out: MIC against M. tuberculosis H37Rv
A. niger [7] = assay: MFC by subculturing; format: cell-based
Procedure: (§1) The minimum bactericidal concentration (MBC) and minimum fungicidal concentration (MFC) of the synthesized benzimidazole derivatives was determined by subculturing 100 µl of culture from each tube that remained clear in MIC determination onto sterilized petri-plates containing fresh agar medium. The petri-plates were incubated and analyzed for microbial growth visually.

C. albicans [8] = assay: MFC by subculturing; format: cell-based
Procedure: as §1

[9] = system: MCF7 (human breast cancer) cell line; assay: Sulforhodamine-B (SRB) cytotoxicity assay; format: cell-based
B. subtilis [10] = assay: Tube dilution MIC; conditions: Bacillus subtilis, 24 h, read-out: MIC B. subtilis
A. niger [11] = assay: microbe, parasite or virus in culture; conditions: Aspergillus niger, 168 h, read-out: MIC A. niger
S. typhi [12] = assay: Tube dilution MIC; format: cell-based; conditions: Salmonella enterica, 24 h, read-out: MIC S. typhi
S. aureus [13] = assay: Tube dilution MIC; conditions: Staphylococcus aureus, 24 h, read-out: MIC S. aureus
B. cereus [14] = assay: Tube dilution MIC; conditions: Bacillus cereus, 24 h, read-out: MIC B. cereus
[15] = In vivo LD50, ED50 and toxic dose in mice models; conditions: mouse, dose that killed 50% of the mice population within the group
Procedure: The LD50 and ED50 were determined for the active compounds in mice models infected with Mycobacterium H37Rv (Table 4). […] Thus, ED50 of 1.34 mg/kg was considered safe for each of the compounds. It was observed that this dose was effective and safe for mice in different groups before infecting the mice models with specific TB bacteria as no mortality of any single animal was recorded.
The LD50 (lethal dose) and ED50 (optimum/effective dose) doses were determined for the active compounds in mice models infected with Mycobacterium H37Rv via ethical permission no., NCFT/EC/16/2313 assigned to Collaborative Research Group (CRG), NCFT, New Delhi, India.

C. albicans [16] = assay: microbe, parasite or virus in culture; conditions: Candida albicans, 48 h, read-out: MIC C. albicans
[17] = system: Gram positive as well as Gram negative bacterial species; assay: Tube dilution MIC, bacteria overall; format: cell-based
B. subtilis [18] = assay: MBC by subculturing; format: cell-based
Procedure: as §1

S. typhi [19] = assay: MBC by subculturing; format: cell-based; conditions: Salmonella enterica, read-out: MBC S. typhi
Procedure: as §1

B. cereus [20] = assay: MBC by subculturing; format: cell-based
Procedure: as §1

E. coli [21] = assay: MBC by subculturing; format: cell-based; conditions: Escherichia coli
Procedure: as §1

S. aureus [22] = assay: MBC by subculturing; format: cell-based; conditions: Staphylococcus aureus
Procedure: as §1

Chain of mycobacterial isocitrate lyase (P9WKK7 whole entry): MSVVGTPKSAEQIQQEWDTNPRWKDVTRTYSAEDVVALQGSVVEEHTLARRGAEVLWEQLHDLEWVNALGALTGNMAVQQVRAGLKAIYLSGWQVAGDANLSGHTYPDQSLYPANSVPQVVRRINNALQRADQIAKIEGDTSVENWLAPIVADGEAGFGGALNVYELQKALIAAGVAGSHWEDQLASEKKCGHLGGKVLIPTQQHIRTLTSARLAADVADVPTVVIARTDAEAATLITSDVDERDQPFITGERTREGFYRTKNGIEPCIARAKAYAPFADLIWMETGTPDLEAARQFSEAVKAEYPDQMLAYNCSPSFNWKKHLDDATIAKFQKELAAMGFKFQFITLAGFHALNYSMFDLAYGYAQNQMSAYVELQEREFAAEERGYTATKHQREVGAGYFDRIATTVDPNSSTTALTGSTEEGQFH

SMILES	zone of inhibition at 50 µg/mL [2] [mm]	MBC (M. tuberculosis H37Rv [3]) [µg/mL]	MIC (E. coli [4]) [µM]	MIC (M. tuberculosis H37Rv [6]) [µg/mL]	MIC (B. subtilis [10]) [µM]	MIC (A. niger [11]) [µM]	MIC (S. typhi [12]) [µM]	MIC (S. aureus [13]) [µM]	MIC (B. cereus [14]) [µM]	MIC (C. albicans [16]) [µM]	MIC against Gram positive as well as Gram negative bacterial species [17] [µM/ml]	MBC (S. typhi [19]) [µg/mL]	MBC (E. coli [21]) [µg/mL]	MBC (S. aureus [22]) [µg/mL]	other results
O=C(CSc1nc2ccccc2n1C(=O)c1ccccc1)Nc1cccc(Br)c1 [Compound 8, 2-(1-Benzoyl-1H-benzo[d]imidazol-2-ylthio)-N-(3-bromophenyl)acetamide]	> 20	25 (≈ 53.6 µM)	27 (≈ 12.6 µg/mL)	12.5 (≈ 26.8 µM)	27 (≈ 12.6 µg/mL)	27 (≈ 12.6 µg/mL)	27 (≈ 12.6 µg/mL)	27 (≈ 12.6 µg/mL)	27 (≈ 12.6 µg/mL)	13 (≈ 6.06 µg/mL)	0.027	> 50	> 50	50 (≈ 107 µM)	IC50 ([1]; HCT-116, read-out: IC50 HCT116): 107 µM; inhibition at 10 µM [5]: 59.5%; MFC (A. niger [7]; Aspergillus niger, read-out: MFC A. niger): > 50 µg/mL; MFC (C. albicans [8]; Candida albicans, read-out: MFC C. albicans): 50 µg/mL (≈ 107 µM); IC50 ([9]; MCF7, read-out: IC50 MCF7): 68.6 µM; LD50 [15]: 1.88 mg/kg; MBC (B. subtilis [18]; Bacillus subtilis, read-out: MBC B. subtilis): > 50 µg/mL; MBC (B. cereus [20]; Bacillus cereus, read-out: MBC B. cereus): > 50 µg/mL
O=C(CSc1nc2ccccc2n1C(=O)c1ccccc1)Nc1ccc(Cl)cc1[N+](=O)[O-] [Compound 11, 2-(1-Benzoyl-1H-benzo[d]imidazol-2-ylthio)-N-(4-chloro-2-nitrophenyl)acetamide]	10	28 (≈ 60 µM)	27 (≈ 12.6 µg/mL)	15 (≈ 32.1 µM)	27 (≈ 12.6 µg/mL)	27 (≈ 12.6 µg/mL)	27 (≈ 12.6 µg/mL)	27 (≈ 12.6 µg/mL)	27 (≈ 12.6 µg/mL)	13 (≈ 6.07 µg/mL)	0.027	50 (≈ 107 µM)	50 (≈ 107 µM)	50 (≈ 107 µM)	IC50 ([1]; HCT-116, SRB assay, HCT116 cell line, read-out: IC50 HCT116): 23.6 µM; MFC (A. niger [7]; Aspergillus niger; read-out: MFC A. niger): > 50 µg/mL; MFC (C. albicans [8]; Candida albicans; read-out: MFC C. albicans): > 50 µg/mL; IC50 ([9]; SRB assay, MCF7 cell line, read-out: IC50 MCF7): 161 µM; MBC (B. subtilis [18]; Bacillus subtilis; read-out: MBC B. subtilis): 50 µg/mL (≈ 107 µM); MBC (B. cereus [20]; Bacillus cereus; read-out: MBC B. cereus): > 50 µg/mL
